Consider 21 molecules from patent US20210300940A1 (Merck Patent GmbH, priority 2018, published 2021).

One experiment has as its target T1, TLR7 (Homo sapiens, UniProt Q9NYK1).
T1 construct: expressed in transfected cells; host or cells: HEK/293 cells carrying TLR7 and an NF-kB luciferase reporter
T1 sequence (Q9NYK1 27-1049): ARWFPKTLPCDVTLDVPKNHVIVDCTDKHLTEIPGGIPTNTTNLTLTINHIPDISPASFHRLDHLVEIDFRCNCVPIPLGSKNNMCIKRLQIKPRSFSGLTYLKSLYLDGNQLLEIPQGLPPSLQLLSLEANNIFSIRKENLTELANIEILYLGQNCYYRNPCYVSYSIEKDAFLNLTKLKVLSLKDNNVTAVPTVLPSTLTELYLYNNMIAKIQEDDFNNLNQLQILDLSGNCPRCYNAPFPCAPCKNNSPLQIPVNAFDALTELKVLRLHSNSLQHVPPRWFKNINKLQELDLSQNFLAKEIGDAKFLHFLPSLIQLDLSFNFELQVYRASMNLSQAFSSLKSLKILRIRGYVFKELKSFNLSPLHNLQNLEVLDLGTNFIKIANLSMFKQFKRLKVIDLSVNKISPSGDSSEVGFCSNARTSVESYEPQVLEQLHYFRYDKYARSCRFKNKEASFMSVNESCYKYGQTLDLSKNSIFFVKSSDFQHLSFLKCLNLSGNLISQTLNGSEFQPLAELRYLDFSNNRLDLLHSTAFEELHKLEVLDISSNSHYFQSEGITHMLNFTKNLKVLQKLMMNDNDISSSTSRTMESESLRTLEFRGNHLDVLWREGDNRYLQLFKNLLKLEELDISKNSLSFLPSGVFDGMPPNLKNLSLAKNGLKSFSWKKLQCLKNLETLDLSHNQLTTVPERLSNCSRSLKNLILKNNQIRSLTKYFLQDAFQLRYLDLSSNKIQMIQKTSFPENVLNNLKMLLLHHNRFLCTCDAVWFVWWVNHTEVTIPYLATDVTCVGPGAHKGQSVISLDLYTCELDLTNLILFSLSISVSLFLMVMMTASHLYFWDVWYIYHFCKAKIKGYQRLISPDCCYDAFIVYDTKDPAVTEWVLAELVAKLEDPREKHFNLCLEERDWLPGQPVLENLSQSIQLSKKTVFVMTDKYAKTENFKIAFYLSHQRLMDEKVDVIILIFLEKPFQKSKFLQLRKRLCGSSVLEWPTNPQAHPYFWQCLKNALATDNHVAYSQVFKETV
Briefly: HEK/293 TLR7 Cell Assay. The format is cell-based. The conditions noted are these: TLR7/NFKb HEK cells, R848 agonist 10 uM final concentration, Steady-Glo readout; read-out: TLR7 potency. A digest of the protocol: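 TLR7/NF-κB reporter HEK293 cells, 5000/well, cultured 24 h, then preincubated 30 min with compound before R848 agonist (10 uM final). After 5 h stimulation, Steady-Glo luciferase luminescence read.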

In a further experiment the target is T2, TLR8 (Homo sapiens, UniProt Q9NR97).
T2 construct: expressed in transfected cells; host or cells: HEK/293 reporter cells (NF-kB luciferase)
T2 sequence (Q9NR97 27-1041): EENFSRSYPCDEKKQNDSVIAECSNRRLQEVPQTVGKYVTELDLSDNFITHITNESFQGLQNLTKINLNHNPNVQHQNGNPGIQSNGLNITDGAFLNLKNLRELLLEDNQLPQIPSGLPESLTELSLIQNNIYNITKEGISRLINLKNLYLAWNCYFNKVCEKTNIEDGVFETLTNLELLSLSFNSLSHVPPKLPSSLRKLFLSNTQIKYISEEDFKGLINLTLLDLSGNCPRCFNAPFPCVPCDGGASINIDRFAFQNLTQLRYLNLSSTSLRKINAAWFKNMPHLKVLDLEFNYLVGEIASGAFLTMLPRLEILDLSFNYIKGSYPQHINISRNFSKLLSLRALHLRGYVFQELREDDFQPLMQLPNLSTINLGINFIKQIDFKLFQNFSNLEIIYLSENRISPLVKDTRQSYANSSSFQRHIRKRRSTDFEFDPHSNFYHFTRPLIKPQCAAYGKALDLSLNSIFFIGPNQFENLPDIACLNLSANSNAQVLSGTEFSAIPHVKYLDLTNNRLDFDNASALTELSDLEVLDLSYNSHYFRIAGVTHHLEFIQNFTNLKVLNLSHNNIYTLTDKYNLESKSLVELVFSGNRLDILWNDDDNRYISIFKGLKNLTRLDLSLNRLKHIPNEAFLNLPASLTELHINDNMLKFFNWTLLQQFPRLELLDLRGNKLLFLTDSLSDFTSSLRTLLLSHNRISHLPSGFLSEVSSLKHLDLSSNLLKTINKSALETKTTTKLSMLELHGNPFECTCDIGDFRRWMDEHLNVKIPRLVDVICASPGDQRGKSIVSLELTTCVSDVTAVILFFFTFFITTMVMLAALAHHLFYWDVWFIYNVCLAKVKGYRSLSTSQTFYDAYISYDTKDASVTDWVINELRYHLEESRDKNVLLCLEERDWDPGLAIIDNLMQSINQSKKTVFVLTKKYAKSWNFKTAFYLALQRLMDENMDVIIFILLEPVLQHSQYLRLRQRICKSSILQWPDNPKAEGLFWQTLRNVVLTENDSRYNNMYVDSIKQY
Nature of the experiment: HEK/293 TLR8 Cell Assay. The format is cell-based. The conditions noted are these: HEK cells, R848 agonist 30 uM final concentration, Steady-Glo readout; read-out: TLR8 potency.

For the molecule `C[C@H]1C[C@@H](NC2CS(=O)(=O)C2)CN(c2ccc(C#N)c3nccnc23)C1` [Example 12, 8-[(3R,5S)-3-(1,1-Dioxo-1lambda6-thietan-3-ylamino)-5-methyl-piperidin-1-yl]-quinoxaline-5-carbonitrile], the figures for the IC50 at TLR7 and at TLR8 were more than 0.15 µM and 0.075 to 0.15 µM, respectively.

`C[C@@H]1CN(c2ccc(C#N)c3nccnc23)C[C@H](C(=O)N2CC(N3CC(C)(O)C3)C2)O1` [Example 235, 8-[(2R,6R)-2-(3-Hydroxy-3-methyl-[1,3′]biazetidinyl-1′-carbonyl)-6-methyl-morpholin-4-yl]-quinoxaline-5-carbonitrile]: the IC50 at TLR7 and on TLR8 was 0.075 to 0.15 µM throughout.

As to `CN(C)CCNC(=O)N[C@@H]1C[C@H](C(F)(F)F)CN(c2ccc(C(F)(F)F)c3nccnc23)C1` [Example 142, 3-[2-(dimethylamino)ethyl]-1-[(3R,5S)-5-(trifluoromethyl)-1-[8-(trifluoromethyl)quinoxalin-5-yl]piperidin-3-yl]urea], the IC50 at TLR7 and on TLR8 was 0.075 to 0.15 µM in each case.

On to `Cc1c(F)cc(N2C[C@@H](C)C[C@@H](NC(=O)[C@H](N)CO)C2)c2cccnc12` [Example 135, (R)-2-Amino-N-[(3R,5S)-1-(7-fluoro-8-methyl-quinolin-5-yl)-5-methyl-piperidin-3-yl]-3-hydroxy-propionamide], for which the IC50 on TLR7 and at TLR8 was less than 0.075 µM throughout.

As to `C[C@@H]1CN(c2cnc(C#N)c3ncccc23)C[C@H](CNC(=O)[C@]2(F)CCCNC2)O1` (single isomer, unassigned) [Example 339], the IC50 at TLR7 is more than 0.15 µM; on TLR8, less than 0.075 µM.

As for `N#Cc1ccc(N2C[C@@H](C(F)(F)F)O[C@@H](C(=O)NC[C@@]3(F)CCNC3)C2)c2nccnc12` (single isomer, unassigned) [Example 307], the IC50 on TLR7 and at TLR8 was less than 0.075 µM throughout.

In the case of `C[C@@H]1CN(c2ccc(C#N)c3nccnc23)C[C@H](CN2CCC(O)CC2)O1` [Example 219, 8-[(2S,6R)-2-(4-Hydroxy-piperidin-1-ylmethyl)-6-methyl-morpholin-4-yl]-quinoxaline-5-carbonitrile], the figures for the IC50 at TLR7 and at TLR8 were 0.075 to 0.15 µM and more than 0.15 µM, respectively.

`CONC(=O)CCN[C@@H]1C[C@H](C)CN(c2ccc(C(F)(F)F)c3ncccc23)C1` [Example 55, N-Methoxy-3-[(3R,5S)-5-methyl-1-(8-trifluoromethyl-quinolin-5-yl)-piperidin-3-ylamino]-propionamide]: the IC50 on TLR7 and at TLR8 was less than 0.075 µM each time.

With `C[C@@H]1CN(c2ccc(C#N)c3nccnc23)C[C@H](CNC(=O)[C@@H](C)O)O1` (single isomer, unassigned) [Example 340], the figures for the IC50 on TLR7 and at TLR8 were more than 0.15 µM and less than 0.075 µM, respectively.

Regarding `C[C@@H](C(=O)N[C@@H]1C[C@H](C(F)(F)F)CN(c2ccc(C#N)c3nccnc23)C1)N1CCN(C)CC1` (single isomer, unassigned) [Example 99], the IC50 on TLR7 is 0.075 to 0.15 µM; at TLR8, less than 0.075 µM.

Turning to `C[C@@H]1CN(c2ccc(C(F)(F)F)c3ncccc23)C[C@H](CN2CCC(N3CCOCC3)CC2)O1` [Example 329, 5-[(2R,6S)-2-Methyl-6-(4-morpholin-4-yl-piperidin-1-ylmethyl)-morpholin-4-yl]-8-trifluoromethyl-quinoline], the IC50 at TLR7 was 0.075 to 0.15 µM; at TLR8 it was less than 0.075 µM.

`CN(C)CCC(=O)N[C@@H]1C[C@H](C(F)(F)F)CN(c2ccc(C#N)c3ncccc23)C1` [Example 65, N-[(3R,5S)-1-(8-cyanoquinolin-5-yl)-5-(trifluoromethyl)piperidin-3-yl]-3-(dimethylamino)propanamide]: the IC50 on TLR7 and at TLR8 was less than 0.075 µM in each case.

On to `C[C@@H]1CN(c2ccc(C#N)c3nccnc23)C[C@H](C(=O)NCC2(F)CCNC2)O1` (stereo partly drawn) [Example 292, (2R,6R)-4-(8-Cyano-quinoxalin-5-yl)-6-methyl-morpholine-2-carboxylic acid (3-fluoro-pyrrolidin-3-ylmethyl)-amide], for which the IC50 at TLR7 and on TLR8 was less than 0.075 µM throughout.

`Cc1c(F)cc(N2C[C@@H](C)O[C@@H](C(=O)N[C@H]3CNC[C@H]3F)C2)c2cccnc12` [Example 298, (2R,6R)-4-(7-Fluoro-8-methyl-quinolin-5-yl)-6-methyl-morpholine-2-carboxylic acid ((3S,4R)-4-fluoro-pyrrolidin-3-yl)-amide]: the IC50 on TLR7 and on TLR8 was less than 0.075 µM throughout.

On to `Cc1ccc(N2C[C@@H](NC(=O)CC3CCN(C(C)C)CC3)CC(F)(F)C2)c2cccnc12` [Example 111, N—[(S)-5,5-Difluoro-1-(8-methyl-quinolin-5-yl)-piperidin-3-yl]-2-(1-isopropyl-piperidin-4-yl)-acetamide], for which the IC50 at TLR7 and at TLR8 was more than 0.15 µM in each case.

Take `N#Cc1ccc(N2C[C@@H](C(=O)NC[C@@H](O)CO)O[C@@H](C(F)(F)F)C2)c2nccnc12` (single isomer, unassigned) [Example 283]: the IC50 at TLR7 and on TLR8 was more than 0.15 µM in each case.

Turning to `CCN(C)CCNC(=O)[C@H]1CN(c2ccc(C#N)c3ncncc23)C[C@@H](C)O1` [Example 266, (2R,6R)-4-(8-Cyano-quinazolin-5-yl)-6-methyl-morpholine-2-carboxylic acid [2-(ethyl-methyl-amino)-ethyl]-amide], the IC50 is 0.075 to 0.15 µM on TLR7 and more than 0.15 µM at TLR8.

Turning to `C[C@@H]1CN(c2ccc(C#N)c3nccnc23)C[C@H](C(=O)N2C[C@@H](N)C3(CC3)C2)O1` [Example 288, 8-[(2R,6R)-2-((S)-7-Amino-5-aza-spiro[2.4]heptane-5-carbonyl)-6-methyl-morpholin-4-yl]-quinoxaline-5-carbonitrile], the IC50 at TLR7 and on TLR8 was less than 0.075 µM in each case.

Regarding `Cc1ccc(N2C[C@H](CNC(=O)CC3CCN(C)CC3)O[C@H](C)C2)c2cccnc12` [Example 342, N-{[(2S,6R)-6-methyl-4-(8-methylquinolin-5-yl)morpholin-2-yl]methyl}-2-(1-methylpiperidin-4-yl)acetamide], the IC50 at TLR7 and on TLR8 was less than 0.075 µM each time.

Consider `C[C@H]1C[C@@H](NC(=O)[C@H](N)CO)CN(c2ccc(C(F)(F)F)c3ncccc23)C1` [Example 167], for which the IC50 on TLR7 and on TLR8 was less than 0.075 µM each time.

In the case of `Cc1c(F)cc(N2C[C@@H](C)C[C@@H](NC(=O)CC3C4CC3CN(C)C4)C2)c2cccnc12` (stereo partly drawn) [Example 112, N-[(3R,5S)-1-(7-Fluoro-8-methyl-quinolin-5-yl)-5-methyl-piperidin-3-yl]-2-(3-methyl-3-aza-bicyclo[3.1.1]hept-6-yl)-acetamide], the IC50 on TLR7 and at TLR8 was less than 0.075 µM each time.
